Test results: patent US11224604B2, “Treatment of graft versus host disease in transplant patients” (PRIOTHERA LIMITED, priority 2013, dated 2022)

System: lethal GvHD in mice
Test: lethal GvHD in mice (BALB/c splenic cells into cyclophosphamide-treated BDF1 mice)
Format: in vivo
Details: day 1 to day 20
Protocol: Female BALB/cAnNCrj mice and female Crj:BDF1 mice were purchased from CHARLES RIVER JAPAN and used at 10 weeks of age as donors and recipients, respectively.
Spleens were collected from donor BALB/c mice. […] The single cell suspension was passed through a cell strainer (70 um, FALCON). The filtrate was centrifuged to collect the cell pellet. […] The number of nucleated cells in the suspension was calculated by staining using Turk's solution. […] This suspension served as a splenic cell suspension.
Recipient BDF1 mice were treated with a dose of cyclophosphamide (SHIONOGI & CO., LTD.) at 300 mg/kg intraperitoneally on day0. One day after cyclophosphamide treatment, the BDF1 mice were intravenously injected with 0.25 mL
(5×10^7 cells/mouse) of the splenic cell suspension from BALB/c mice to induce lethal GvHD.
Treatment with a Compound (Control/CsA/KRP203)
The compounds were orally administrated once a day from day 1 (just after injection of the splenic cells) to day 20. The mice were observed until day 70.

Measured: % Survival

NC(CO)(CO)CCc1ccc(Sc2cccc(OCc3ccccc3)c2)cc1Cl [KRP-203, 2-amino-2-[4-(3-benzyloxyphenylthio)-2-chlorophenyl]ethyl-propane-1,3-diol]
89%: KRP-203 0.01 mg/kg orally once a day, Day 8 after injection of the splenic cells
33%: KRP-203 0.01 mg/kg orally once a day, Day 40 after injection of the splenic cells | KRP-203 0.01 mg/kg orally once a day, Day 70 after injection of the splenic cells
44%: KRP-203 0.01 mg/kg orally once a day, Day 12 after injection of the splenic cells | KRP-203 0.01 mg/kg orally once a day, Day 20 after injection of the splenic cells | KRP-203 0.01 mg/kg orally once a day, Day 25 after injection of the splenic cells | KRP-203 0.01 mg/kg orally once a day, Day 30 after injection of the splenic cells
67%: KRP-203 0.01 mg/kg orally once a day, Day 10 after injection of the splenic cells
100%: KRP-203 0.01 mg/kg orally once a day, Day 5 after injection of the splenic cells | KRP-203 0.03 mg/kg orally once a day, Day 5 after injection of the splenic cells | KRP-203 0.03 mg/kg orally once a day, Day 8 after injection of the splenic cells | KRP-203 0.03 mg/kg orally once a day, Day 10 after injection of the splenic cells | KRP-203 0.03 mg/kg orally once a day, Day 12 after injection of the splenic cells | KRP-203 0.03 mg/kg orally once a day, Day 20 after injection of the splenic cells | KRP-203 0.03 mg/kg orally once a day, Day 25 after injection of the splenic cells | KRP-203 0.03 mg/kg orally once a day, Day 30 after injection of the splenic cells | KRP-203 0.03 mg/kg orally once a day, Day 40 after injection of the splenic cells | KRP-203 0.03 mg/kg orally once a day, Day 70 after injection of the splenic cells | KRP-203 0.1 mg/kg orally once a day, Day 5 after injection of the splenic cells | KRP-203 0.1 mg/kg orally once a day, Day 8 after injection of the splenic cells | KRP-203 0.1 mg/kg orally once a day, Day 10 after injection of the splenic cells | KRP-203 0.1 mg/kg orally once a day, Day 12 after injection of the splenic cells | KRP-203 0.1 mg/kg orally once a day, Day 20 after injection of the splenic cells | KRP-203 0.1 mg/kg orally once a day, Day 25 after injection of the splenic cells | KRP-203 0.1 mg/kg orally once a day, Day 30 after injection of the splenic cells | KRP-203 0.1 mg/kg orally once a day, Day 40 after injection of the splenic cells | KRP-203 0.1 mg/kg orally once a day, Day 70 after injection of the splenic cells | KRP-203 0.3 mg/kg orally once a day, Day 5 after injection of the splenic cells | KRP-203 0.3 mg/kg orally once a day, Day 8 after injection of the splenic cells | KRP-203 0.3 mg/kg orally once a day, Day 10 after injection of the splenic cells | KRP-203 0.3 mg/kg orally once a day, Day 12 after injection of the splenic cells | KRP-203 0.3 mg/kg orally once a day, Day 20 after injection of the splenic cells | KRP-203 0.3 mg/kg orally once a day, Day 25 after injection of the splenic cells | KRP-203 0.3 mg/kg orally once a day, Day 30 after injection of the splenic cells | KRP-203 0.3 mg/kg orally once a day, Day 40 after injection of the splenic cells | KRP-203 0.3 mg/kg orally once a day, Day 70 after injection of the splenic cells | KRP-203 1 mg/kg orally once a day, Day 5 after injection of the splenic cells | KRP-203 1 mg/kg orally once a day, Day 8 after injection of the splenic cells | KRP-203 1 mg/kg orally once a day, Day 10 after injection of the splenic cells | KRP-203 1 mg/kg orally once a day, Day 12 after injection of the splenic cells | KRP-203 1 mg/kg orally once a day, Day 20 after injection of the splenic cells | KRP-203 1 mg/kg orally once a day, Day 25 after injection of the splenic cells | KRP-203 1 mg/kg orally once a day, Day 30 after injection of the splenic cells | KRP-203 1 mg/kg orally once a day, Day 40 after injection of the splenic cells | KRP-203 1 mg/kg orally once a day, Day 70 after injection of the splenic cells
